Laboratory results as given in ChEMBL document CHEMBL3414474, “Design and synthesis of piperidine derivatives as novel human heat shock protein 70 inhibitors for the treatment of drug-resistant tumors” (Eur J Med Chem, 2015).

Key:
MDA-MB-453 = assay: Growth inhibition of human MDA-MB-453 cells at 5 uM incubated for 72 hrs by ATP detection based luminescent assay; format: functional; conditions: MDA-MB-453, 72 h, read-out: GI
[1] = Growth inhibition of human SK/LapR1.0 cells at 5 uM incubated for 72 hrs by ATP detection based luminescent assay; format: functional; conditions: read-out: GI
Homo sapiens = species on record: Homo sapiens; assay: Inhibition of HSP70 (unknown origin) at 200 uM pre-incubated for 30 mins followed by ATP addiction and measured after 3 hrs by malachite green reagent based colorimetric assay
[2] = Growth inhibition of human BT/LapR1.0 cells at 5 uM incubated for 72 hrs by ATP detection based luminescent assay; format: functional; conditions: read-out: GI
[3] = Growth inhibition of human BT474 cells at 5 uM incubated for 72 hrs by ATP detection based luminescent assay; format: functional; conditions: BT-474, 72 h, read-out: GI
MDA-MB-361 = assay: Growth inhibition of human MDA-MB-361 cells at 5 uM incubated for 72 hrs by ATP detection based luminescent assay; format: functional; conditions: MDA-MB-361, 72 h, read-out: GI
[4] = Growth inhibition of human SKBR3 cells at 5 uM incubated for 72 hrs by ATP detection based luminescent assay; format: functional; conditions: SK-BR-3, 72 h, read-out: GI
[5] = Binding affinity to human HSP70 at 25 degC by surface plasmon resonance assay

inhibition (Homo sapiens) | Kd [5] | Structure (SMILES) | inhibition of growth at 5 µM (MDA-MB-453) | inhibition of growth at 5 µM [1] | inhibition of growth at 5 µM [2] | inhibition of growth at 5 µM [3] | inhibition of growth at 5 µM (MDA-MB-361) | inhibition of growth at 5 µM [4]
– | – | CSc1nccc(N2CCC(N(C)Cc3ccc(Cl)c(Cl)c3)CC2)n1 | 60% | – | – | – | – | –
– | – | CCOc1ncc(CN2CCC(N(C)Cc3ccccc3C#N)CC2)s1 | – | 7.2% | – | – | – | –
10.7% | – | CSc1ncc(CN2CCC(N(C)Cc3ccc(Cl)c(Cl)c3)CC2)s1 | – | – | – | – | – | –
– | – | CN(Cc1c(Cl)cccc1Cl)C1CCN(Cc2cnc(Cl)s2)CC1 | 72.4% | 4.5% | 66.3% | 70% | 36.3% | 37.8%
– | – | COc1nccc(N2CCC(N(C)Cc3ccc(C)cc3)CC2)n1 | 68.9% | 13.5% | 58.8% | 61.5% | 30.1% | 19.7%
– | – | CSc1ncc(CN2CCC(N(C)Cc3c(F)cccc3Cl)CC2)s1 | 65.3% | 4.5% | 59.9% | 49.5% | 47.2% | 9.2%
10.6% | 200 nM | CSc1ncc(CN2CCC(N(C)Cc3ccc(C)cc3)CC2)s1 | – | – | – | – | – | –
53.1% | – | COc1ccc(-c2nc(-c3cc(C(F)(F)F)cc(C(F)(F)F)c3)n(Cc3ccc(C(N)=O)cc3)c2-c2ccc(OC)cc2)cc1 | – | – | – | – | – | –
– | – | CSc1ncc(CN2CCC(N(C)Cc3ccccc3C)CC2)s1 | – | 6.9% | 1.4% | – | – | –
– | – | CSc1ncc(CN2CCC(N(C)Cc3cccc(F)c3)CC2)s1 | – | 2.1% | – | – | – | –
– | – | CCOc1ncc(CN2CCC(N(C)Cc3c(Cl)cccc3Cl)CC2)s1 | – | 5.1% | – | – | – | –
– | – | CN(Cc1ccccc1C#N)C1CCN(Cc2cnc(Cl)s2)CC1 | 8.2% | 4.2% | 4% | -4.1% | -8.5% | 7.3%
– | – | CCOc1ncc(CN2CCC(N(C)Cc3ccc(F)cc3)CC2)s1 | – | – | – | – | – | 26%
– | – | CCOc1ncc(CN2CCC(N(C)Cc3cc(Cl)ccc3Cl)CC2)s1 | – | 5.2% | 9.6% | 5.6% | – | 9.4%
– | – | COc1cc(N2CCC(N(C)Cc3ccc(Cl)c(Cl)c3)CC2)ncn1 | – | 28% | 9.2% | 9.8% | 6.5% | –
– | – | COc1cc(N2CCC(N(C)Cc3ccc(F)cc3)CC2)ncn1 | 5% | 5.7% | 8.1% | 7.8% | 4.9% | 7.6%
– | – | COc1nccc(N2CCC(N(C)Cc3cccc(F)c3)CC2)n1 | – | 3.9% | – | 9.9% | 8.5% | 9.2%
– | – | COc1nccc(N2CCC(N(C)Cc3cc(Cl)ccc3Cl)CC2)n1 | 50.6% | 11.7% | 22.7% | 27.5% | 22% | 24.7%
– | – | CSc1nccc(N2CCC(N(C)Cc3cccc(F)c3)CC2)n1 | 66.2% | 35.2% | 63.9% | 67.1% | 50.4% | 32.6%
– | 245 nM | CSc1ncc(CN2CCC(N(C)Cc3cccc(Cl)c3)CC2)s1 | – | 7.3% | – | – | – | –
4.5% | – | CCOc1ncc(CN2CCC(N(C)Cc3ccc(Cl)cc3Cl)CC2)s1 | – | 12% | – | – | – | –
– | – | CN(Cc1ccc(F)cc1)C1CCN(Cc2cnc(Cl)s2)CC1 | 11% | -0.1% | 9% | 7.1% | -1.3% | –
6.21% | – | CSc1ncc(CN2CCC(N(C)Cc3ccc(Cl)cc3Cl)CC2)s1 | – | – | – | 70% | – | –
7.73% | 204 nM | CSc1nccc(N2CCC(N(C)Cc3ccc(F)cc3)CC2)n1 | – | – | – | – | 46% | –
16.7% | – | CSc1nccc(N2CCC(N(C)Cc3ccccc3C#N)CC2)n1 | 68.7% | 80.7% | 68.1% | 74.2% | 64.1% | 87.6%
– | – | CS(=O)(=O)CCNCc1ccc(-c2ccc3ncnc(Nc4ccc(OCc5cccc(F)c5)c(Cl)c4)c3c2)o1 [LAPATINIB] | – | – | 18% | – | – | 79%

inhibition (Homo sapiens) | Kd [5] | Structure (SMILES) | inhibition of growth at 5 µM (MDA-MB-453) | inhibition of growth at 5 µM [1] | inhibition of growth at 5 µM [2] | inhibition of growth at 5 µM [3] | inhibition of growth at 5 µM (MDA-MB-361) | inhibition of growth at 5 µM [4]
– | – | CN(Cc1cccc(F)c1)C1CCN(Cc2cnc(Cl)s2)CC1 | 4.4% | 1.3% | 5.7% | 2.4% | 3.2% | 4.2%
– | – | COc1cc(N2CCC(N(C)Cc3ccc(C)cc3)CC2)ncn1 | – | 22% | 8% | 5% | – | –
– | – | CSc1nccc(N2CCC(N(C)Cc3cc(Cl)ccc3Cl)CC2)n1 | 69.3% | 29.4% | 56.9% | 61% | 45.7% | 19.3%
– | – | COc1cc(N2CCC(N(C)Cc3cccc(Cl)c3)CC2)ncn1 | – | – | 9.4% | – | – | –
– | – | COc1cc(N2CCC(N(C)Cc3ccc(C#N)cc3)CC2)ncn1 | – | 8.8% | – | – | – | –
– | – | CN(Cc1cccc(Cl)c1)C1CCN(Cc2cnc(Cl)s2)CC1 | – | 8.5% | 8.4% | 7.1% | 9.7% | –
5.49% | – | CCOc1ncc(CN2CCC(N(C)Cc3ccc(C#N)cc3)CC2)s1 | – | 6.7% | – | – | – | –
– | – | COc1nccc(N2CCC(N(C)Cc3ccc(C#N)cc3)CC2)n1 | 66.2% | 16.6% | 58.1% | 60.4% | 27.7% | 31.7%
11.3% | – | CN(Cc1ccc(C#N)cc1)C1CCN(Cc2cnc(Cl)s2)CC1 | – | 7.5% | – | – | – | –
– | – | COc1cc(N2CCC(N(C)Cc3cc(Cl)ccc3Cl)CC2)ncn1 | 9.4% | 9.4% | 5.6% | 5.4% | 8.4% | 5.2%
– | 281 nM | COc1nccc(N2CCC(N(C)Cc3ccc(F)cc3)CC2)n1 | – | 9% | – | – | – | –
– | – | CN(Cc1ccc(Cl)c(Cl)c1)C1CCN(Cc2cnc(Cl)s2)CC1 | – | 5.3% | – | – | – | –
– | – | Fc1ccc(CNC2CCN(Cc3cnc(Cl)s3)CC2)cc1 | 72.4% | 40.4% | 66.3% | 70% | 36.3% | 37.8%
– | – | COc1cc(N2CCC(N(C)Cc3ccccc3Cl)CC2)ncn1 | – | 29% | – | – | – | –
– | – | COc1nccc(N2CCC(N(C)Cc3ccccc3C#N)CC2)n1 | 79.5% | 74.3% | 72.7% | 71.6% | 53.3% | 86.5%
6.11% | – | COc1nccc(N2CCC(N(C)Cc3ccccc3Cl)CC2)n1 | 60.8% | 35.8% | 28.6% | 36.7% | 45.1% | 41.4%
– | – | Clc1cccc(CNC2CCN(Cc3cnc(Cl)s3)CC2)c1 | 2.4% | 4.1% | 7.2% | 3.8% | 3.2% | –
43% | 206 nM | N#Cc1ccc(COC[C@H]2O[C@@H](n3c(NCc4ccc(Cl)c(Cl)c4)nc4c(N)ncnc43)[C@H](O)[C@@H]2O)cc1 | – | – | – | – | – | –
– | – | CSc1nccc(N2CCC(N(C)Cc3ccc(C)cc3)CC2)n1 | 66.6% | 42% | 65.8% | 69.2% | 55.7% | 38.9%
– | – | CCOc1ncc(CN2CCC(N(C)Cc3ccccc3Cl)CC2)s1 | – | 0.6% | – | – | – | –
– | – | CN(Cc1c(F)cccc1Cl)C1CCN(Cc2cnc(Cl)s2)CC1 | – | 1.5% | 3.2% | – | – | 9.8%
– | – | Clc1ncc(CN2CCC(NCc3ccc(Cl)c(Cl)c3)CC2)s1 | – | – | – | 11% | – | –
– | – | CCOc1ncc(CN2CCC(N(C)Cc3cccc(Cl)c3)CC2)s1 | – | 5.2% | – | – | – | –
– | – | Cc1ccc(CN(C)C2CCN(Cc3cnc(Cl)s3)CC2)cc1 | – | 8.4% | 16% | – | – | –
– | – | Cc1ccccc1CN(C)C1CCN(Cc2cnc(Cl)s2)CC1 | 3.5% | 5.1% | 4% | 1.5% | 4.4% | 9.7%
